Reference: patent publication US20240041991A1, “STABLE LIQUID DISPERSINB COMPOSITIONS” (KANE BIOTECH INC., priority 2020, published 2024)
Where two headings read alike, the source gives them in different places. Marks after values point to notes of the source that are not given here.

Tested on: DispersinB
Type: biochemical, Aggregatibacter actinomycetemcomitans
Settings: for % enzymatic activity of DispersinB (Mean): polyol % as in label
Method: Samples from each formula was incubated at 3 different temperatures (42° C., 52° C. and 62° C.) for 3 hours. Following a 3 hour incubation, the samples were brought to room temperature for enzymatic activity assay.
Two-tailed paired T-test was performed by to compare each polyol containing treatment with the treatment devoid of polyol. Treatment with probability values (p) less than 5% (0.05) was considered significant.

Structure (SMILES): O[C@H]1[C@H](O)[C@@H](O)[C@H](O)[C@@H](O)[C@H]1O [inositol, Inositol]
- % enzymatic activity of DispersinB (Mean) (4° C., freshly made control without polyol = 100%, listed as 0.25% Inositol): 104%
- % enzymatic activity of DispersinB (Mean) (4° C., freshly made control without polyol = 100%, listed as 0.5% Inositol): 101%
- % enzymatic activity of DispersinB (Mean) (4° C., freshly made control without polyol = 100%, listed as 1% Inositol): 101%
- % enzymatic activity of DispersinB (Mean) (4° C., freshly made control without polyol = 100%, listed as 2% Inositol): 102%
- % enzymatic activity of DispersinB (Mean) (4° C., freshly made control without polyol = 100%, listed as 4% Inositol): 107* %
- % enzymatic activity of DispersinB (Mean) (4° C., freshly made control without polyol = 100%, listed as 6% Inositol): 112* %
- % enzymatic activity of DispersinB (Mean) (4° C., freshly made control without polyol = 100%, listed as 8% Inositol): 118* %
- % enzymatic activity of DispersinB (Mean) (4° C., freshly made control without polyol = 100%, listed as 10% Inositol): 115* %
- % enzymatic activity of DispersinB (Mean) (4° C., freshly made control without polyol = 100%, listed as 12% Inositol): 118* %
- % enzymatic activity of DispersinB (Mean) (4° C., freshly made control without polyol = 100%, listed as 14% Inositol): 124* %
- % enzymatic activity of DispersinB (Mean) (42° C. for 3 hours, control without polyol = 100%, listed as 0.25% Inositol): 96* %
- % enzymatic activity of DispersinB (Mean) (42° C. for 3 hours, control without polyol = 100%, listed as 0.5% Inositol): 97* %
- % enzymatic activity of DispersinB (Mean) (42° C. for 3 hours, control without polyol = 100%, listed as 1% Inositol): 99* %
- % enzymatic activity of DispersinB (Mean) (42° C. for 3 hours, control without polyol = 100%, listed as 2% Inositol): 101* %
- % enzymatic activity of DispersinB (Mean) (42° C. for 3 hours, control without polyol = 100%, listed as 4% Inositol): 106* %
- % enzymatic activity of DispersinB (Mean) (42° C. for 3 hours, control without polyol = 100%, listed as 6% Inositol): 112* %
- % enzymatic activity of DispersinB (Mean) (42° C. for 3 hours, control without polyol = 100%, listed as 8% Inositol): 126* %
- % enzymatic activity of DispersinB (Mean) (42° C. for 3 hours, control without polyol = 100%, listed as 10% Inositol): 113* %
- % enzymatic activity of DispersinB (Mean) (42° C. for 3 hours, control without polyol = 100%, listed as 12% Inositol): 118* %
- % enzymatic activity of DispersinB (Mean) (42° C. for 3 hours, control without polyol = 100%, listed as 14% Inositol): 115%
- temperature stabilizing effect on DispersinB at elevated temperatures (42° C., 52° C., and 62° C.): exhibited temperature stabilizing effect
- % enzymatic activity of DispersinB (Mean) (52° C. for 3 hours, control without polyol = 100%, listed as 0.5% Inositol): 1* %
- % enzymatic activity of DispersinB (Mean) (52° C. for 3 hours, control without polyol = 100%, listed as 1% Inositol): 3* %
- % enzymatic activity of DispersinB (Mean) (52° C. for 3 hours, control without polyol = 100%, listed as 2% Inositol): 8* %
- % enzymatic activity of DispersinB (Mean) (52° C. for 3 hours, control without polyol = 100%, listed as 4% Inositol): 19* %
- % enzymatic activity of DispersinB (Mean) (52° C. for 3 hours, control without polyol = 100%, listed as 6% Inositol): 37* %
- % enzymatic activity of DispersinB (Mean) (52° C. for 3 hours, control without polyol = 100%, listed as 8% Inositol): 66* %
- % enzymatic activity of DispersinB (Mean) (52° C. for 3 hours, control without polyol = 100%, listed as 10% Inositol): 77* %
- % enzymatic activity of DispersinB (Mean) (52° C. for 3 hours, control without polyol = 100%, listed as 12% Inositol): 86* %
- % enzymatic activity of DispersinB (Mean) (52° C. for 3 hours, control without polyol = 100%, listed as 14% Inositol): 92* %
